Experimental data reported in patent publication US8217030B2, “Association of a sinus node if current inhibitor and a beta blocker” (Les Laboratoires Servier, priority 2008, dated 2012).

Experiments:
[1] = test system: patients with angina pectoris treated with β-blockers; test: heart rate at rest in clinical study; format: in vivo, human; details: after 4 months of treatment; heart rate at rest on entry 67±7 beats per minute
Method: (§1) The patients selected for this clinical study are men and women from 18 to 75 years of age who have suffered from angina pectoris for at least 3 months and been treated with β-blockers such as atenolol (50 mg o.d.) or any other β-blocker at an equivalent dose for at least 3 months. These patients have, despite their treatment, a positive exercise tolerance test (ETT) and daily symptoms of angina pectoris.
(§2) This double-blind, parallel-group, international clinical study was carried out in 889 patients. The patients, all of whom are receiving atenolol, are randomised into two groups: • in addition to the β-blocker, the first group is given ivabradine (hydrochloride) at a dose of 5 mg twice a day for two months and then at a dose of 7.5 mg twice a day for a further two months; • in addition to the β-blocker, the second group is given a placebo for 4 months.
The patients have a mean age of 60±8 years. On entry into the study, the mean systolic/diastolic arterial pressure and heart rate of the patients at rest are respectively, on average: 127±12/78±7 mmHg and 67±7 beats per minute. After 4 months of treatment with the association, the heart rate has reduced by 9±10 bpm (β-blocker+placebo 1±10 bpm).

[2] = test system: patients with angina pectoris treated with β-blockers; test: treadmill exercise tolerance test (ETT), Bruce protocol, clinical study; format: in vivo, human
Method: as §1, §2
The patients are subjected to a treadmill exercise tolerance test (ETT) in accordance with the Bruce protocol before ivabradine is administered (that is when receiving β-blocker on its own), and after 4 months of treatment with the association between ivabradine and atenolol. The principal parameters measured in the course of the effort test are: • total exercise duration (TED)—the TED includes the time taken for the treadmill to come to a stop or, that is, a duration of about 10 seconds starting from the patient's request to stop the exercise; • the time until the “angina pectoris” pain forces the patient to stop the exercise (TLA); • the time until the onset of the “angina pectoris” pain (TAO); • the time taken for a 1 mm ST segment depression (TST) to appear on the electrocardiographic recording, this being a reflection of ischaemia and corresponding to the electrical sign of pain in the cardiac muscle.
These measurements are made at trough activity of the association of active ingredients or, that is, 12±1 hours and 24±2 hours after administration of the active ingredients.
The mean improvements in the various parameters measured during the treadmill exercise test, between the value measured before the start of treatment with ivabradine and the end of the treatment period, are set out in the table below: […]

[3] = mean ± SD, before ivabradine vs after 4 months of treatment, on top of atenolol, at trough activity

SMILES | reduction of heart rate [1] [bpm] | Improvement in time taken for a 1 mm ST segment depression (TST) [2, 3] [s] | Improvement in time until angina pectoris pain forces the patient to stop the exercise (TLA) [2, 3] [s] | Improvement in time until onset of angina pectoris pain (TAO) [2, 3] [s] | Improvement in total exercise duration (TED) ([2]; mean ± SD, before ivabradine vs after 4 months of treatment, on top of atenolol, ivabradine 5 mg b.i.d. 2 months then 7.5 mg b.i.d. 2 months, at trough activity) [s] | exercise tolerance ([2]; patients already receiving a standard dose of β-blockers)
CC(C)NCC(O)COc1ccc(CC(N)=O)cc1 (stereo not drawn) [β-blocker + placebo, atenolol] | 1±10 | 15 ± 87 | 9 ± 64 | 23 ± 79 | 8 ± 64 | 
COc1cc2c(cc1OC)CC(=O)N(CCCN(C)C[C@H]1Cc3cc(OC)c(OC)cc31)CC2 [ivabradine, 3-{3-[{[(7S)-3,4-dimethoxybicyclo[4.2.0]octa-1,3,5-trien-7-yl]methyl}(methyl)amino]propyl}-7,8-dimethoxy-1,3,4,5-tetrahydro-2H-3-benzazepin-2-one] |  |  |  |  |  | capable of improving exercise tolerance
